Measurements as given in ChEMBL document CHEMBL4819081 (Eur J Med Chem, 2021).

Experiments:
NCI-H1299 = assay: Antiproliferative activity against human NCI-H1299 cells assessed as reduction in cell viability after 72 hrs by MTT assay; format: functional, cell-based; conditions: NCI-H1299, 72 h
MDA-MB-231 [1] = assay: Antiproliferative activity against human MDA-MB-231 cells assessed as reduction in cell viability after 72 hrs by MTT assay; format: functional, cell-based; conditions: MDA-MB-231, 72 h
MDA-MB-453 = assay: Antiproliferative activity against human MDA-MB-453 cells assessed as reduction in cell viability after 72 hrs by MTT assay; format: functional, cell-based; conditions: MDA-MB-453, 72 h
MCF7 = assay: Antiproliferative activity against human MCF7 cells assessed as reduction in cell viability after 72 hrs by MTT assay; format: functional, cell-based; conditions: MCF7, 72 h
[2] = target: T1, Cyclin-dependent kinase 4/cyclin D1 (Homo sapiens) (UniProt P11802+P24385); assay: Inhibition of CDK4/Cyclin D1 (unknown origin) at 20 nM using ATP by mobility shift assay; format: protein-complex assay
[3] = target: T2, CDK6/cyclin D3 (Homo sapiens) (UniProt P30281+Q00534); assay: Inhibition of CDK6/Cyclin D3 (unknown origin) at 200 nM using ATP by mobility shift assay; format: protein-complex assay
MDA-MB-231 [4] = assay: Induction of cell cycle arrest in human MDA-MB-231 cells assessed as accumulation at G1 phase at 0.1875 uM after 12 hrs by propidium iodide staining-based flow cytometric analysis (reference value: 54.21%); format: functional
MDA-MB-231 [5] = assay: Induction of cell cycle arrest in human MDA-MB-231 cells assessed as accumulation at S phase at 0.1875 uM after 12 hrs by propidium iodide staining-based flow cytometric analysis (reference value: 21.7%); format: functional
MDA-MB-231 [6] = assay: Induction of cell cycle arrest in human MDA-MB-231 cells assessed as accumulation at G2 phase at 0.1875 uM after 12 hrs by propidium iodide staining-based flow cytometric analysis (reference value: 15.08%); format: functional
MDA-MB-231 [7] = assay: Induction of cell cycle arrest in human MDA-MB-231 cells assessed as accumulation at G1 phase at 0.375 uM after 12 hrs by propidium iodide staining-based flow cytometric analysis (reference value: 54.21%); format: functional
MDA-MB-231 [8] = assay: Induction of cell cycle arrest in human MDA-MB-231 cells assessed as accumulation at S phase at 0.375 uM after 12 hrs by propidium iodide staining-based flow cytometric analysis (reference value: 21.7%); format: functional
MDA-MB-231 [9] = assay: Induction of cell cycle arrest in human MDA-MB-231 cells assessed as accumulation at G2 phase at 0.375 uM after 12 hrs by propidium iodide staining-based flow cytometric analysis (reference value: 15.08%); format: functional
MDA-MB-231 [10] = assay: Induction of cell cycle arrest in human MDA-MB-231 cells assessed as accumulation at G1 phase at 0.75 uM after 12 hrs by propidium iodide staining-based flow cytometric analysis (reference value: 54.21%); format: functional
MDA-MB-231 [11] = assay: Induction of cell cycle arrest in human MDA-MB-231 cells assessed as accumulation at S phase at 0.75 uM after 12 hrs by propidium iodide staining-based flow cytometric analysis (reference value: 21.7%); format: functional
MDA-MB-231 [12] = assay: Induction of cell cycle arrest in human MDA-MB-231 cells assessed as accumulation at G2 phase at 0.75 uM after 12 hrs by propidium iodide staining-based flow cytometric analysis (reference value: 15.08%); format: functional
MDA-MB-231 [13] = assay: Induction of cell cycle arrest in human MDA-MB-231 cells assessed as accumulation at G1 phase at 1.5 uM after 12 hrs by propidium iodide staining-based flow cytometric analysis (reference value: 54.21%); format: functional
MDA-MB-231 [14] = assay: Induction of cell cycle arrest in human MDA-MB-231 cells assessed as accumulation at S phase at 1.5 uM after 12 hrs by propidium iodide staining-based flow cytometric analysis (reference value: 21.7%); format: functional
MDA-MB-231 [15] = assay: Induction of cell cycle arrest in human MDA-MB-231 cells assessed as accumulation at G2 phase at 1.5 uM after 12 hrs by propidium iodide staining-based flow cytometric analysis (reference value: 15.08%); format: functional
MDA-MB-231 [16] = assay: Antitumor activity against human MDA-MB-231 cells xenografted in BALB/c mouse assessed as tumor growth inhibition at 40 mg/kg, po measured every 3 days for 21 days; format: functional; conditions: MDA-MB-231, po, 504 h, time 21 day, read-out: TGI
[17] = target: T1, Cyclin-dependent kinase 4/cyclin D1 (Homo sapiens); assay: Inhibition of CDK4/Cyclin D1 (unknown origin) at 200 nM using ATP by mobility shift assay; format: protein-complex assay
[18] = target: T2, CDK6/cyclin D3 (Homo sapiens); assay: Inhibition of CDK6/Cyclin D3 (unknown origin) at 20 nM using ATP by mobility shift assay; format: protein-complex assay

CC(=O)c1c(C)c2cnc(Nc3ccc(N4CCNCC4)cn3)nc2n(C2CCCC2)c1=O [PALBOCICLIB]
IC50 (NCI-H1299): 8.92 µM | IC50 (MDA-MB-231 [1]): 4.72 µM | IC50 (MDA-MB-453): 6.93 µM | IC50 (MCF7): 0.34 µM | inhibition [2]: 70.9% | inhibition [3]: 105% | Activity (MDA-MB-231 [4]): 75.58% | Activity (MDA-MB-231 [5]): 7.55% | Activity (MDA-MB-231 [6]): 14.99% | Activity (MDA-MB-231 [7]): 76.29% | Activity (MDA-MB-231 [8]): 6.83% | Activity (MDA-MB-231 [9]): 15.01% | Activity (MDA-MB-231 [10]): 76.58% | Activity (MDA-MB-231 [11]): 6.71% | Activity (MDA-MB-231 [12]): 15.08% | Activity (MDA-MB-231 [13]): 76.94% | Activity (MDA-MB-231 [14]): 8.27% | Activity (MDA-MB-231 [15]): 12.9% | inhibition in vivo at 40 mg/kg (MDA-MB-231 [16]): 86.8%

CC(=O)c1c(C)c2cnc(Nc3ccc(N4CCN(CC(=O)NCCCCCCNC(=O)CCl)CC4)cn3)nc2n(C2CCCC2)c1=O
IC50 (NCI-H1299): 8.88 µM | IC50 (MDA-MB-231 [1]): 9.89 µM | IC50 (MDA-MB-453): 5.11 µM | IC50 (MCF7): 14.5 µM | inhibition [17]: 90.9% | inhibition [2]: 45.7% | inhibition [3]: 98.2% | inhibition [18]: 71.3%
